In US11691951B2 (Curtana Pharmaceuticals, Inc., priority 2015, dated 2023):
pIC50: −log10 of the molar value.

Tested on: GBM8 cells (human glioblastoma neurosphere cell culture)
Assay: GBM8 viability assay (Cell Titer Glo luminescence, 3 days)
Assay type: cell-based
Details: 72 h, 3 days incubation
Outline: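 Patient-derived neurosphere cells (4000/well) in NeuroCult medium with rh EGF, rh bFGF and heparin, ultra-low attachment, dosed after overnight settling; 3 days at 37 °C. CellTiter-Glo luminescence versus DMSO controls gave % growth inhibition; IC50 from 4-parameter fit of serial dilutions.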

Row | SMILES | pIC50
1 | Cc1cc(NCC(C)O)nc(NC(=O)Nc2ccc(C(F)(F)F)cc2)n1 (stereo not drawn) [Compound 198] | > 6.00
2 | Cc1cc(NCCOCCO)nc(NC(=O)Nc2ccc(C(F)(F)F)cc2)n1 [Compound 199] | > 6.00
3 | Cc1cc(NCCCCO)nc(NC(=O)Nc2ccc(C(F)(F)F)cc2)n1 [Compound 200] | > 6.00
4 | Cc1cc(NCCO)nc(NC(=O)Nc2ccc(C(F)(F)F)cc2)n1 [Compound 201] | > 6.00
5 | CCCNc1cc(C)nc(NC(=O)Nc2ccc(C(F)(F)F)cc2)n1 [Compound 202] | > 6.00
6 | Cc1cc(NCCN(C)C)nc(NC(=O)Nc2ccc(C(F)(F)F)cc2)n1 [Compound 203] | > 6.00
7 | Cc1cc(NCCCN)nc(NC(=O)Nc2ccc(C(F)(F)F)cc2)n1 [Compound 204] | 5.00 to 6.00
8 | CNCCCN(C)c1cc(C)nc(NC(=O)Nc2ccc(C(F)(F)F)cc2)n1 [Compound 205] | 5.00 to 6.00
9 | Cc1cc(NCC2CCCN(C)C2)nc(NC(=O)Nc2ccc(C(F)(F)F)cc2)n1 (stereo not drawn) [Compound 206] | 5.00 to 6.00
10 | Cc1cc(NCCN)nc(NC(=O)Nc2ccc(C(F)(F)F)cc2)n1 [Compound 207] | > 6.00
11 | Cc1cccc(NC(=O)Nc2nc(C)cc(NCCCN(C)C)n2)c1 [Compound 209, 1-(4-((3-(dimethylamino)propyl)amino)-6-methylpyrimidin-2-yl)-3-(m-tolyl)urea] | > 6.00
12 | Cc1cccc(NC(=O)Nc2nc(C)cc(NCCCN)n2)c1 [Compound 210] | > 6.00
13 | Cc1cccc(NC(=O)Nc2nc(C)cc(NCCO)n2)c1 [Compound 211] | > 6.00
14 | Cc1cccc(NC(=O)Nc2nc(C)cc(NCCCCO)n2)c1 [Compound 212] | > 6.00
15 | Cc1cccc(NC(=O)Nc2nc(C)cc(NCCN)n2)c1 [Compound 213] | > 6.00
16 | Cc1cccc(NC(=O)Nc2nc(C)cc(NCC3CCCN(C)C3)n2)c1 (stereo not drawn) [Compound 214] | 5.00 to 6.00
17 | Cc1cccc(NC(=O)Nc2nc(C)cc(NCCN(C)C)n2)c1 [Compound 215] | > 6.00
18 | Cc1cccc(NC(=O)Nc2nc(C)cc(NCCCCN)n2)c1 [Compound 216] | > 6.00
19 | Cc1cccc(NC(=O)Nc2nc(C)cc(NCCOCCO)n2)c1 [Compound 217] | > 6.00
20 | CCCNc1cc(C)nc(NC(=O)Nc2cccc(C)c2)n1 [Compound 218] | > 6.00
21 | Cc1cccc(NC(=O)Nc2nc(C)cc(NCC(C)O)n2)c1 (stereo not drawn) [Compound 219] | > 6.00
22 | COC(=O)CCNc1cc(C)nc(NC(=O)Nc2cccc(C)c2)n1 [Compound 220] | 5.00 to 6.00
23 | Cc1cccc(NC(=O)Nc2nc(C)cc(NCCCc3ccccn3)n2)c1 [Compound 221] | 5.00 to 6.00
24 | Cc1cccc(NC(=O)Nc2nc(C)cc(NCC(O)CO)n2)c1 (stereo not drawn) [Compound 223] | > 6.00
25 | CCNc1cc(C)nc(NC(=O)Nc2cccc(C)c2)n1 [Compound 224] | > 6.00

Row | SMILES | pIC50
26 | Cc1cccc(NC(=O)Nc2nc(C)cc(NCCCc3cnc[nH]3)n2)c1 [Compound 226] | > 6.00
27 | Cc1cccc(NC(=O)Nc2nc(C)cc(NCCCCN(C)C)n2)c1 [Compound 227] | > 6.00
28 | CNCCNc1cc(C)nc(NC(=O)Nc2cccc(C)c2)n1 [Compound 229, 1-(4-methyl-6-((2-(methylamino)ethyl)amino)pyrimidin-2-yl)-3-(m-tolyl)urea] | 5.00 to 6.00
29 | CNCCCNc1cc(C)nc(NC(=O)Nc2cccc(C)c2)n1 [Compound 230] | > 6.00
30 | CNCCCCNc1cc(C)nc(NC(=O)Nc2cccc(C)c2)n1 [Compound 231] | 5.00 to 6.00
31 | Cc1cccc(NC(=O)Nc2nc(C)cc(NCC3CCCNC3)n2)c1 (stereo not drawn) [Compound 232] | > 6.00
32 | Cc1ccc(NC(=O)Nc2nc(C)cc(NCCCN(C)C)n2)cc1 [Compound 234, 1-(4-((3-(dimethylamino)propyl)amino)-6-methylpyrimidin-2-yl)-3-(p-tolyl)urea] | > 6.00
33 | Cc1ccc(NC(=O)Nc2nc(C)cc(NCCCN)n2)cc1 [Compound 236] | > 6.00
34 | Cc1ccc(NC(=O)Nc2nc(C)cc(NCCN)n2)cc1 [Compound 237] | > 6.00
35 | Cc1ccc(NC(=O)Nc2nc(C)cc(NCCOCCO)n2)cc1 [Compound 238] | 5.00 to 6.00
36 | Cc1ccc(NC(=O)Nc2nc(C)cc(NCCCCO)n2)cc1 [Compound 239] | > 6.00
37 | Cc1ccc(NC(=O)Nc2nc(C)cc(NCCO)n2)cc1 [Compound 240] | > 6.00
38 | Cc1ccc(NC(=O)Nc2nc(C)cc(NCCCCN)n2)cc1 [Compound 241] | > 6.00
39 | Cc1ccc(NC(=O)Nc2nc(C)cc(NCCN(C)C)n2)cc1 [Compound 242] | 5.00 to 6.00
40 | Cc1ccc(NC(=O)Nc2nc(C)cc(NCCCc3cnc[nH]3)n2)cc1 [Compound 243] | > 6.00
41 | Cc1ccc(NC(=O)Nc2nc(C)cc(NCCCCN(C)C)n2)cc1 [Compound 245] | 5.00 to 6.00
42 | Cc1ccc(NC(=O)Nc2nc(C)cc(NCC(O)CO)n2)cc1 (stereo not drawn) [Compound 246] | > 6.00
43 | CNCCCNc1cc(C)nc(NC(=O)Nc2ccc(C)cc2)n1 [Compound 248, 1-(4-methyl-6-((3-(methylamino)propyl)amino)pyrimidin-2-yl)-3-(p-tolyl)urea] | 5.00 to 6.00
44 | Cc1ccc(NC(=O)Nc2nc(C)cc(NCC3CCCNC3)n2)cc1 (stereo not drawn) [Compound 249, 1-(4-methyl-6-((piperidin-3-ylmethyl)amino)pyrimidin-2-yl)-3-(p-tolyl)urea] | 5.00 to 6.00
45 | Cc1cc(NCCCN(C)C)nc(NC(=O)Nc2ccc(C)c(C)c2)n1 [Compound 251, 1-(4-((3-(dimethylamino)propyl)amino)-6-methylpyrimidin-2-yl)-3-(3,4-dimethylphenyl)urea] | > 6.00
46 | Cc1cc(NCCCN)nc(NC(=O)Nc2ccc(C)c(C)c2)n1 [Compound 253] | > 6.00
47 | Cc1cc(NCCCCN)nc(NC(=O)Nc2ccc(C)c(C)c2)n1 [Compound 254] | > 6.00
48 | Cc1cc(NCCCCO)nc(NC(=O)Nc2ccc(C)c(C)c2)n1 [Compound 255] | > 6.00
49 | Cc1cc(NCCCCN(C)C)nc(NC(=O)Nc2ccc(C)c(C)c2)n1 [Compound 256] | > 6.00
50 | Cc1cc(NCC2CCCN(C)C2)nc(NC(=O)Nc2ccc(C)c(C)c2)n1 (stereo not drawn) [Compound 258] | 5.00 to 6.00

Row | SMILES | pIC50
51 | Cc1cc(NCCO)nc(NC(=O)Nc2ccc(C)c(C)c2)n1 [Compound 259] | > 6.00
52 | Cc1cc(NCCOCCO)nc(NC(=O)Nc2ccc(C)c(C)c2)n1 [Compound 260] | 5.00 to 6.00
53 | CCCNc1cc(C)nc(NC(=O)Nc2ccc(C)c(C)c2)n1 [Compound 261] | > 6.00
54 | Cc1cc(NCC(C)O)nc(NC(=O)Nc2ccc(C)c(C)c2)n1 (stereo not drawn) [Compound 262] | > 6.00
55 | Cc1cc(NCC(O)CO)nc(NC(=O)Nc2ccc(C)c(C)c2)n1 (stereo not drawn) [Compound 264] | > 6.00
56 | Cc1cc(NCCCc2cnc[nH]2)nc(NC(=O)Nc2ccc(C)c(C)c2)n1 [Compound 266] | > 6.00
57 | CNCCNc1cc(C)nc(NC(=O)Nc2ccc(C)c(C)c2)n1 [Compound 268, 1-(3,4-dimethylphenyl)-3-(4-methyl-6-((2-(methylamino)ethyl)amino)pyrimidin-2-yl)urea] | 5.00 to 6.00
58 | CNCCCNc1cc(C)nc(NC(=O)Nc2ccc(C)c(C)c2)n1 [Compound 269] | > 6.00
59 | CNCCCCNc1cc(C)nc(NC(=O)Nc2ccc(C)c(C)c2)n1 [Compound 270] | > 6.00
60 | Cc1cc(NCC2CCCNC2)nc(NC(=O)Nc2ccc(C)c(C)c2)n1 (stereo not drawn) [Compound 271] | > 6.00
61 | CC(=O)NCCCNc1cc(C)nc(NC(=O)Nc2ccc(Cl)c(Cl)c2)n1 [Compound 272, N-(3-((2-(3-(3,4-dichlorophenyl)ureido)-6-methylpyrimidin-4-yl)amino)propyl)acetamide] | 5.00 to 6.00
62 | CC(=O)NCCCNc1cc(C)nc(NC(=O)Nc2ccc(OC(F)(F)F)cc2)n1 [Compound 273, N-(3-((6-methyl-2-(3-(4-(trifluoromethoxy)phenyl)ureido)pyrimidin-4-yl)amino)propyl)acetamide] | > 6.00
63 | CC(=O)NCCNc1cc(C)nc(NC(=O)Nc2ccc(OC(F)(F)F)cc2)n1 [Compound 274, N-(3-((6-methyl-2-(3-(4-(trifluoromethoxy)phenyl)ureido)pyrimidin-4-yl)amino)ethyl)acetamide] | > 6.00
64 | COc1ccc(NC(=O)Nc2nc(C)cc(NCCCNC(C)=O)n2)cc1 [Compound 275, N-(3-((2-(3-(4-methoxyphenyl)ureido)-6-methylpyrimidin-4-yl)amino)propyl)acetamide] | > 6.00
65 | COc1ccc(NC(=O)Nc2nc(C)cc(NCCNC(C)=O)n2)cc1 [Compound 276, N-(2-((2-(3-(4-methoxyphenyl)ureido)-6-methylpyrimidin-4-yl)amino)ethyl)acetamide] | > 6.00
66 | CC(=O)NCCNc1cc(C)nc(NC(=O)Nc2cccc(C(F)(F)F)c2)n1 [Compound 277] | 5.00 to 6.00
67 | CC(=O)NCCCNc1cc(C)nc(NC(=O)Nc2ccc(F)c(Cl)c2)n1 [Compound 278] | > 6.00
68 | Cc1cc(NCCNS(C)(=O)=O)nc(NC(=O)Nc2ccc(OC(F)(F)F)cc2)n1 [Compound 279] | > 6.00
69 | Cc1cc(NCCCN(C)C)nc(NC(=O)Nc2ccc3c(c2)OCO3)n1 [Compound 281, 1-(benzo[d][1,3]dioxol-5-yl)-3-(4-((3-(dimethylamino)propyl)amino)-6-methylpyrimidin-2-yl)urea] | 5.00 to 6.00
70 | Cc1cc(NCCCN)nc(NC(=O)Nc2ccc3c(c2)OCO3)n1 [Compound 282] | > 6.00
71 | Cc1cc(NCCN)nc(NC(=O)Nc2ccc3c(c2)OCO3)n1 [Compound 283] | > 6.00
72 | Cc1cc(NCCN(C)C)nc(NC(=O)Nc2ccc3c(c2)OCO3)n1 [Compound 284] | 5.00 to 6.00
73 | CCNc1cc(C)nc(NC(=O)Nc2ccc3c(c2)OCO3)n1 [Compound 285] | > 6.00
74 | CCCNc1cc(C)nc(NC(=O)Nc2ccc3c(c2)OCO3)n1 [Compound 286] | > 6.00
75 | CNCCNc1cc(C)nc(NC(=O)Nc2ccc3c(c2)OCO3)n1 [Compound 288, 1-(benzo[d][1,3]dioxol-5-yl)-3-(4-methyl-6-((2-(methylamino)ethyl)amino)pyrimidin-2-yl)urea] | > 6.00
